Entries after “also recorded” stand apart in the source; their conditions may differ.
Tests used:
[1] = target: mu (MOP) (h) (agonist radioligand) (Homo sapiens, UniProt P35372); experiment: Receptor panel, inhibition of binding
[2] = test system: sigma 2 (agonist radioligand); experiment: Receptor panel, inhibition of binding; conditions: Compound II 10 uM
neuronal cultures = experiment: Neuronal nuclear intensity / morphology; conditions: 24 hours
Sigma-1 receptors = Sigma-1 receptors (Homo sapiens, UniProt Q99720); experiment: Sigma-1 competitive radioligand binding, [3H](+)pentazocine, Jurkat cell membranes
Chain of Sigma-1 receptors (Q99720 whole entry): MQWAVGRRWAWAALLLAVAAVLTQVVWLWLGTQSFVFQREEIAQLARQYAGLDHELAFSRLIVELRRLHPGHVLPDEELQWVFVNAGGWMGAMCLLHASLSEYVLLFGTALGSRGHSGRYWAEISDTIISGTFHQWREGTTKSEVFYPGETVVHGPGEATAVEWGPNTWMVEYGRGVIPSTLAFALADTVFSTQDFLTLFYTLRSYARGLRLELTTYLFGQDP
Protocol: Reactions were terminated by rapid filtration through Whatman GF/C filters using a Brandel 12R cell harvester followed by two washes with ice-cold buffer. Radioactivity on the dried filter discs was measured using a liquid scintillation analyzer (Tri-Carb 2900TR; PerkinElmer Life and Analytical Sciences). The displacement curves were plotted and the Ki values of the test ligands for the receptor subtypes were determined using GraphPad Prism (GraphPad Software Inc., San Diego, Calif.). The percentage specific binding was determined by dividing the difference between total bound (disintegrations per minute) and nonspecific bound (disintegrations per minute) by the total bound (disintegrations per minute).

[3] = test system: Abeta oligomer-induced memory deficits in wt C57BL/6 mice; experiment: Contextual fear conditioning, intrahippocampal Abeta oligomers; assay type: in vivo, mouse; conditions: before oligomers
Protocol: Several pharmaceutical companies use this same model in their discovery efforts. Contextual fear conditioning is an accepted model of associative memory formation which correlates to human cognitive function and specifically the creation of new memories (Delgado '06). Abeta oligomers are injected into the hippocampus of wild-type animals immediately before conditioning training and memory is assessed via freezing behavior after 24 hours. See, for example, FIGS. 4 and 8. Details are provided in Example 9. […] This model system was chosen because intrahippocampal administration of oligomers allows rapid comparative assessment of compound activity and off-target toxicity. The results are shown graphically in FIG. 4.
Compound II was tested in an animal model of a memory-dependent behavioral task known as fear conditioning. The study protocol was designed based on published protocols (See e.g. Puzzo D, Privitera L, Leznik E, Fà M, Staniszewski A, Palmeri A, Arancio O. Picomolar amyloid-beta positively modulates synaptic plasticity and memory in hippocampus. J. Neurosci. 2008 Dec. 31; 28(53):14537-45.). The formation of contextual memories is dependent upon the integrity of medial temporal lobe structures such as the hippocampus. […]

[4] = test system: Abeta oligomer-induced synapse loss in primary hippocampal neurons; experiment: Synapse loss assay; assay type: cell-based, rat
Protocol: (§1) In this assay, Abeta oligomers were brought in contact with mature primary neurons in culture and their binding was determined by immunohistochemistry (anti-Abeta antibody) and quantified by image processing. The amount of Abeta in neuronal dendrites is assessed by counting the number of labeled puncta on the neuritis. […] This labeling is associated with synapses, co-localizing with the post-synaptic scaffold protein PSD-95 (Lacor et al., '04). […] The number of synapses can also be quantified in this assay by immunofluorochemistry. Similar procedures for binding assays can be found in the literature. […] Review.
(§2) Primary hippocampal neuronal culture was established as in the membrane trafficking assay above. […] Pretreatment with compounds to be tested lasted for 1 hr and addition of Abeta oligomers or no oligomer (vehicle alone) in a final concentration of 70 ul was followed by incubation for an additional 23 hrs.
(§3) The plates were then washed 3× with PBS for 5 min each. The plates were blocked at RT for 1 hr in 5% goat serum and 0.5% Triton X-100 in PBS. […] Primary antibodies were incubated overnight at 4° C. The plates were then washed 3× with PBS for 5 min each. […] Secondary antibodies were incubated at RT for 1 hr. The plates were washed once with PBS. DAPI (4′,6-diamidino-2-phenylindole, Invitrogen) was then applied at 0.03 ug/ul and incubated at RT for 5 min, then washed with PBS.

[5] = test system: Abeta oligomer binding to primary neurons; experiment: Abeta 1-42 oligomer binding assay; assay type: cell-based, rat
Protocol: as §1, §2, §3

[6] = test system: neurons and glia in culture; experiment: In vitro neuronal and glial toxicity; assay type: cell-based; conditions: acute or chronic dosing, up to 50 μM, three days
Excerpt: The sigma-2 receptor antagonists eliminated or reduced Abeta oligomer-induced changes in membrane trafficking.

Chain of mu (MOP) (h) (agonist radioligand) (P35372 whole entry): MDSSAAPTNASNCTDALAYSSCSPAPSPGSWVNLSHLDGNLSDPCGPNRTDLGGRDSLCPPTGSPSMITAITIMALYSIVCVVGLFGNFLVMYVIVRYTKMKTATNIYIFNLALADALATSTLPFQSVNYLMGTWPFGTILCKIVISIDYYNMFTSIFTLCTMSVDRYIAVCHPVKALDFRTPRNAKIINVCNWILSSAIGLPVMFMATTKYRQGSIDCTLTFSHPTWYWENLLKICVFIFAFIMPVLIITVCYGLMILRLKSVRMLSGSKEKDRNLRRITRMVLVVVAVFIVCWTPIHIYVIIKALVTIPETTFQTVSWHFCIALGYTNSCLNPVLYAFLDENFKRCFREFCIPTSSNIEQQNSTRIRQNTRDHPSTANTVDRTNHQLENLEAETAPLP

## COc1cc(CCC(C)NCc2ccc(C(F)(F)F)cc2)ccc1O (stereo not shown) [Compound II]
[1]; Table 11E
  Other Targets: Mu opioid: opioid (4 uM),
[1]; read-out: % Inhibition of Control
  inhibition at 10 µM: 60%
[2]
  % Inhibition of Control: 89%
Neuronal cultures
  Nuclear morphology / nuclear intensity in neurons: did not decrease nuclear intensity
Sigma-1 receptors; Ki at sigma-1 receptors, displacement of [3H]-(+)-pentazocine, human Jurkat cell membranes
  Ki: 500 nM
Sigma-1 receptors; S1 binding Ki (nM), Table 11B
  Ki: 500 nM
Sigma-1 receptors; Sigma 1 Binding Ki (nM), Table 2, own compounds
  Ki: 500 nM
Sigma-1 receptors; Sigma Affinity (S1) nM, Table 11E, own compounds
  Ki: 500 nM
[3]
  Effect on Abeta oligomer-induced memory deficits: eliminated memory deficits; also recorded: completely blocked oligomer-mediated memory deficits at the 2 pmol dose
[4]
  Effect on Abeta oligomer-induced synapse loss: completely eliminated this synaptic regression
[4]; 5 μM
  Abeta oligomer-induced synapse loss eliminated: 100%
[4]; Table 11B
  Block synapse loss: 100%
[4]; b801
  Abeta oligomer-induced synapse loss eliminated / recovery: 100%
[5]; FIG. 3D
  Decrease of Abeta binding intensity (Abeta puncta): 18%
[5]; imaging processing algorithm
  Partial block of binding of Abeta oligomer ligand to neurons: about 25%
[6]
  Neuronal or glial toxicity: did not induce neuronal or glial toxicity

From US20140378460A1, “COMPOSITIONS AND METHODS FOR TREATING NEURODEGENERATIVE DISEASE” (COGNITION THERAPEUTICS, INC., priority 2011, published 2014)
